# Assay results from patent US8604016B2, “Heterocyclic inhibitors of glutaminase” (Calithera Biosciences Inc., priority 2011, dated 2013).
# Like-named read-outs stand apart in the source and are kept apart here.
# Molecular target: recombinant form of Glutaminase 1 (GAC) (Homo sapiens, UniProt O94925)
# Experiment: Recombinant Enzyme Assay (GAC coupled to GDH, NADH absorbance, no preincubation)
# Type: biochemical
# Settings: read-out: GAC Delta N2 IC50 no preinc
# In short: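 GAC (4 nM) in Tris-HCl pH 8.0 with 150 mM K2HPO4, EDTA, BSA, DTT, plus 4 units/ml GDH and 4 mM ADP, without preincubation. Absorbance at 340 nm was read kinetically for 15 min at 20° C. Slopes (mAU/min) were compared with DMSO-only and control-compound wells on the same plate.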
IC50 (no preincubation) [µM],SMILES,IC50 [µM]
> 20,O=C(Nc1nnc(CCCCc2nnc(NC(=O)[C@H](O)[C@@H](O)c3ccccc3)s2)s1)[C@H](O)[C@@H](O)c1ccccc1 [Compound 225],
0.51,COCC(C(=O)Nc1nnc(CCCCc2nnc(NC(=O)C(COC)c3ccccc3)s2)s1)c1ccccc1 (centres unmarked) [Compound 165],
> 20,CCN(C(=O)Cc1ccccc1)c1nnc(CCSCCc2nnc(N(CC)C(=O)Cc3ccccc3)s2)s1 [Compound 150],
0.26,O=C(Cc1ccccc1)Nc1nnc(CCCCc2nnc(NC(=O)OCc3ccccc3)s2)s1 [Compound 374],
> 20,O=C(Nc1nnc(CCCCc2nnc(NC(=O)C(F)(F)c3ccccc3)s2)s1)C(F)(F)c1ccccc1 [Compound 303],
1.1,O=C(CC(C(=O)O)c1ccccc1)Nc1nnc(CCCCc2nnc(NC(=O)CC(C(=O)O)c3ccccc3)s2)s1 (centres unmarked) [Compound 177],
0.2,O=C(Cc1ccccc1F)Nc1nnc(CCSCCc2nnc(NC(=O)Cc3ccccc3F)s2)s1 [Compound 294],
15,"O=C(Cc1ccccc1)Nc1nnc(CCNCCc2nnc(NC(=O)Cc3ccccc3)s2)s1 [Compound 149, N,N′-(5,5′-(azanediyl-bis(ethane-2,1-diyl))-bis(1,3,4-thiadiazole-5,2-diyl))-bis(2-phenylacetamide) trifluoroacetic acid]",
0.24,CN(C)c1ccc(CC(=O)Nc2nnc(CCCCc3nnc(NC(=O)Cc4ccc(N(C)C)cc4)s3)s2)cc1 [Compound 164],
1.3,O=C(Nc1nnc(CCCCc2nnc(NC(=O)C3(c4ccccc4)CC3)s2)s1)C1(c2ccccc2)CC1 [Compound 168],
0.52,COc1ccccc1C(CO)C(=O)Nc1nnc(CCSCCc2nnc(NC(=O)C(CO)c3ccccc3OC)s2)s1 (centres unmarked) [Compound 245],
0.08,O=C(Cc1ccccc1)Nc1ccc(CCCCc2ccc(NC(=O)Cc3ccccc3)nn2)nn1 [Compound 1038],
0.64,COc1cc(C(O)C(=O)Nc2nnc(CCCCc3nnc(NC(=O)C(O)c4ccc(O)c(OC)c4)s3)s2)ccc1O (centres unmarked) [Compound 319],
11,O=C(Nc1nnc(CCCCc2nnc(NC(=O)C3(c4cccs4)CCOCC3)s2)s1)C1(c2cccs2)CCOCC1 [Compound 167],
0.24,NS(=O)(=O)c1ccc(CC(=O)Nc2nnc(CCSCCc3nnc(NC(=O)Cc4ccc(S(N)(=O)=O)cc4)s3)s2)cc1 [Compound 217],
0.22,CS(=O)(=O)c1cccc(CC(=O)Nc2nnc(CCSCCc3nnc(NC(=O)Cc4cccc(S(C)(=O)=O)c4)s3)s2)c1 [Compound 158],
0.59,CO[C@H](C(=O)Nc1nnc(CCCCc2nnc(NC(=O)[C@@H](OC)c3ccccc3)s2)s1)c1ccccc1 [Compound 148],
0.38,O=C(Nc1nnc(CCCCc2nnc(NC(=O)[C@@H](O)c3ccccc3Cl)s2)s1)[C@@H](O)c1ccccc1Cl [Compound 210],
0.73,O=C(Cc1c(F)cccc1F)Nc1nnc(CCSCCc2nnc(NC(=O)Cc3c(F)cccc3F)s2)s1 [Compound 298],
3.1,O=C(CCC(C(=O)O)c1ccccc1)Nc1nnc(CCSCCc2nnc(NC(=O)CCC(C(=O)O)c3ccccc3)s2)s1 (centres unmarked) [Compound 179],
> 20,CC(=O)OCC(=O)Nc1nnc(CCSCCc2nnc(NC(=O)CO)s2)s1 [Compound 254],
4.4,O=C(Nc1nnc(CCSCCc2nnc(NC(=O)C3Cc4cc(Cl)ccc4O3)s2)s1)C1Cc2cc(Cl)ccc2O1 (centres unmarked) [Compound 189],
> 20,CC(C)[C@H](NC(=O)OC(C)(C)C)C(=O)OCC(C(=O)Nc1nnc(CCCCc2nnc(NC(=O)C(COC(=O)[C@@H](NC(=O)OC(C)(C)C)C(C)C)c3ccccc3)s2)s1)c1ccccc1 (some centres unmarked) [Compound 272],
0.17,COc1ccccc1CC(=O)Nc1nnc(CCSCCc2nnc(NC(=O)Cc3ccccc3OC)s2)s1 [Compound 219],
0.17,O=C(Cc1ccccc1)Nc1nnc(CCSCc2nnc(NC(=O)Cc3ccccn3)s2)s1 [Compound 373],

# Continued, compound first:
SMILES,IC50 (no preincubation) [µM],IC50 [µM]
O=C(Nc1nnc(CCSCCc2nnc(NC(=O)c3ccccc3)s2)s1)c1ccccc1 [Compound 2],,4.1
CC(C(=O)Nc1nnc(CCSCCc2nnc(NC(=O)C(C)c3ccccc3)s2)s1)c1ccccc1 (centres unmarked) [Compound 19],11,
CC(C)(C)OC(=O)N1CCC(CC(=O)Nc2nnc(CCCCc3nnc(NC(=O)CC4CCN(C(=O)OC(C)(C)C)CC4)s3)s2)CC1 [Compound 114],0.6,
O=C(Nc1nnc(CCCCc2nnc(NC(=O)C3CCCC3)s2)s1)C1CCCC1 [Compound 53],> 50,
CC(C)CC(=O)Nc1nnc(CCSCCc2nnc(NC(=O)CC(C)C)s2)s1 [Compound 4],13,
CC(CCc1nnc(NC(=O)Cc2ccccc2)s1)CCc1nnc(NC(=O)Cc2ccccc2)s1 [Compound 9],> 50,
NCC(C(=O)Nc1nnc(CCCCc2nnc(NC(=O)C(CN)c3ccccc3)s2)s1)c1ccccc1 (centres unmarked) [Compound 231],7.4,
O=C(CCc1ccccc1)Nc1nnc(CCCCc2nnc(NC(=O)CCc3ccccc3)s2)s1 [Compound 106],> 20,
COCCC(=O)Nc1nnc(CCCCc2nnc(NC(=O)CCOC)s2)s1 [Compound 100],8.1,
COc1cccc(C(CO)C(=O)Nc2nnc(CCCCc3nnc(NC(=O)C(CO)c4cccc(OC)c4)s3)s2)c1 (centres unmarked) [Compound 257],0.12,
CN(C)C(Cc1ccccc1)C(=O)Nc1nnc(CCCCc2nnc(NC(=O)C(Cc3ccccc3)N(C)C)s2)s1 (centres unmarked) [Compound 89],> 20,
O=CO[C@@H](C(=O)Nc1nnc(CCCCc2nnc(NC(=O)[C@H](OC=O)c3ccccc3)s2)s1)c1ccccc1 [Compound 68],4.9,
CC(C)(C)OC(=O)Nc1cccc(CC(=O)Nc2nnc(CCSCCc3nnc(NC(=O)Cc4cccc(NC(=O)OC(C)(C)C)c4)s3)s2)c1 [Compound 98],> 20,
O=C(Nc1nnc(CCSCCc2nnc(NC(=O)C3CCCO3)s2)s1)C1CCCO1 (centres unmarked) [Compound 39],26,
CC[C@](O)(C(=O)Nc1nnc(CCCCc2nnc(NC(=O)[C@@](O)(CC)c3ccccc3)s2)s1)c1ccccc1 [Compound 143],0.57,
O=C(Cc1ccc2ncccc2c1)Nc1nnc(CCCCc2nnc(NC(=O)Cc3ccc4ncccc4c3)s2)s1 [Compound 269],0.26,
O=C(CC1CCNCC1)Nc1nnc(CCCCc2nnc(NC(=O)CC3CCNCC3)s2)s1 [Compound 132],> 20,
O=C(Nc1nnc(CCCCc2nnc(NC(=O)C3Cc4cc(Br)ccc4O3)s2)s1)C1Cc2cc(Br)ccc2O1 (centres unmarked) [Compound 122],3.5,
O=C(Nc1nnc(CCCCCc2nnc(NC(=O)C(CO)c3ccccc3)s2)s1)C(CO)c1ccccc1 (centres unmarked) [Compound 30],1.2,
NCC(C(=O)Nc1nnc(CCSCCc2nnc(NC(=O)C(CN)c3ccccc3)s2)s1)c1ccccc1 (centres unmarked) [Compound 230],12,
N[C@@H](CO)C(=O)Nc1nnc(CCSCCc2nnc(NC(=O)[C@@H](N)CO)s2)s1 [Compound 137],> 20,
CC(C)(C)OC(=O)N1CCN(C(C(=O)Nc2nnc(CCCCc3nnc(NC(=O)C(c4ccccc4)N4CCN(C(=O)OC(C)(C)C)CC4)s3)s2)c2ccccc2)CC1 (centres unmarked) [Compound 63],25,

SMILES,IC50 (no preincubation) [µM],IC50 [µM]
O=C(CC1CCNCC1)Nc1nnc(CCSCCc2nnc(NC(=O)CC3CCNCC3)s2)s1 [Compound 129],> 20,
CC(C)(C)OC(=O)N1CCC(CC(=O)Nc2nnc(CCSCCc3nnc(NC(=O)CC4CCN(C(=O)OC(C)(C)C)CC4)s3)s2)CC1 [Compound 111],0.95,
O=C(Cc1cccc(OCCN2CCOCC2)c1)Nc1nnc(CCSCc2nnc(NC(=O)Cc3cccc(OCCN4CCOCC4)c3)s2)s1 [Compound 267],0.61,
CCC(C)C(=O)Nc1nnc(CCCCc2nnc(NC(=O)C(C)CC)s2)s1 (centres unmarked) [Compound 107],4.3,
COc1cccc(CC(=O)Nc2nnc(CCCCc3nnc(NC(=O)Cc4cccc(OC)c4OC)s3)s2)c1OC [Compound 260],0.15,
O=C(CC1CCCNC1)Nc1nnc(CCCCc2nnc(NC(=O)CC3CCCNC3)s2)s1 (centres unmarked) [Compound 130],> 20,
O=C(Nc1nnc(CCSCCc2nnc(NC(=O)C3CCOC3)s2)s1)C1CCOC1 (centres unmarked) [Compound 95],2.9,
CC(=O)O[C@H](C(=O)Nc1nnc(CCCCc2nnc(NC(=O)[C@@H](OC(C)=O)c3ccccc3)s2)s1)c1ccccc1 [Compound 66],20,
O=C(Cc1cccc(F)c1)Nc1nnc(CCSCCc2nnc(NC(=O)Cc3cccc(F)c3)s2)s1 [Compound 102],0.24,
O=C(Nc1nnc(CCCCc2nnc(NC(=O)C3CCCO3)s2)s1)C1CCCO1 (centres unmarked) [Compound 54],9.2,
O=C(Cc1ccsc1)Nc1nnc(CCCCc2nnc(NC(=O)Cc3ccsc3)s2)s1 [Compound 88],0.2,
COc1ccc2c(c1)CC(C(=O)Nc1nnc(CCCCc3nnc(NC(=O)C4Cc5cc(OC)ccc5O4)s3)s1)O2 (centres unmarked) [Compound 121],1.7,
CC(=O)NCC(C(=O)Nc1nnc(CCSCCc2nnc(NC(=O)C(CNC(C)=O)c3ccccc3)s2)s1)c1ccccc1 (centres unmarked) [Compound 232],9.8,
CC(C(=O)Nc1nnc(CCSCCc2nnc(N)s2)s1)c1ccccc1 (centres unmarked) [Compound 20],6.6,
CN(C(=O)Cc1ccccc1)c1nnc(CCSCCc2nnc(N(C)C(=O)Cc3ccccc3)s2)s1 [Compound 6],> 50,
O=C(Nc1nnc(CCCCc2nnc(NC(=O)C(c3ccccc3)N3CCNCC3)s2)s1)C(c1ccccc1)N1CCNCC1 (centres unmarked) [Compound 77],6.1,
O=C(Nc1nnc(CCSCCc2nnc(NC(=O)C3CCc4ccccc4C3)s2)s1)C1CCc2ccccc2C1 (centres unmarked) [Compound 37],> 50,
O=C(Nc1nnc(CCSCCc2nnc(NC(=O)C3Cc4cc(Br)ccc4O3)s2)s1)C1Cc2cc(Br)ccc2O1 (centres unmarked) [Compound 118],5,
Nc1nnc(CCSCCc2nnc(NC(=O)[C@@H]3CCCN3C(=O)C(F)(F)F)s2)s1 [Compound 23],> 50,
O=C(Cc1ccccc1)Nc1nnc(CCSCCc2nnc(NC(=O)[C@@H]3CCCN3C(=O)C(F)(F)F)s2)s1 [Compound 35],18,
CCC(C)C(=O)Nc1nnc(CCSCCc2nnc(NC(=O)C(C)CC)s2)s1 (centres unmarked) [Compound 105],9.9,
